This passage reports melting point, IC50 and SGLT1/SGLT2 results from patent US8017792B2, “1-thio-D-glucitol derivatives” (Taisho Pharmaceutical Co., Ltd., priority 2005, dated 2011).

What is called melting point is the temperature, or range, at which the solid turns liquid.

One data set concerns the target T1, Human SGLT2 (Homo sapiens, UniProt P31639).
T1 construct: expressed in transfected cells; host or cells: CHO-K1
T1 sequence (P31639 1-672): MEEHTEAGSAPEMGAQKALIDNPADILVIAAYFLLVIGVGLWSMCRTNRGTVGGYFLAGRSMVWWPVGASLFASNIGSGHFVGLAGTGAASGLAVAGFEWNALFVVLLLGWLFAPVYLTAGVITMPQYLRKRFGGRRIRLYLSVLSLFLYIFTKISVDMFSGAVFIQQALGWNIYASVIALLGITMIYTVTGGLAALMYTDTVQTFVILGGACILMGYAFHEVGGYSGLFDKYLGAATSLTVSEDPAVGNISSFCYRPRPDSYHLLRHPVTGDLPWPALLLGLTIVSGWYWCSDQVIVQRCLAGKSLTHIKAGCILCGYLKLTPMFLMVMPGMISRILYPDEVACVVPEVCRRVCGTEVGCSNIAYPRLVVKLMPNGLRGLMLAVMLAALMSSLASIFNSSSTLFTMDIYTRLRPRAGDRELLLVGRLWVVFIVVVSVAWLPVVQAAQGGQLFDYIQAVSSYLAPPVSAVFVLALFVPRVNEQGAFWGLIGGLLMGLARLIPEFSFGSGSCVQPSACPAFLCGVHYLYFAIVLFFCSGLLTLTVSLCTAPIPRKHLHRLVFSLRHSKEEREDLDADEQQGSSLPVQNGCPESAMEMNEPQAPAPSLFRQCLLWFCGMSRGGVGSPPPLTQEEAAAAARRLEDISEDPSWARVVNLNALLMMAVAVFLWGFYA
Briefly: Sodium-dependent sugar uptake inhibition test in CHO-K1 cells stably expressing human SGLT2 (Test Example 2). The format is cell-based. As to conditions: for IC50: CHO-K1 cells, [14C]methyl-α-D-glucopyranoside 1 mM, 37° C., one hour; for SGLT1/SGLT2: ratio of IC50 human SGLT1 to IC50 human SGLT2. As for the experimental part: (§1) Human SGLT1 sequence (NM_000343) was reverse-transcripted from human small intestinal mRNA, then amplified, and then introduced into pCMV-tag5A from Stratagene Corporation. Human SGLT2 sequence (NM_003041) was prepared from human nephric mRNA as with the above method, and then introduced into pcDNA3.1+hygro from Invitrogen Corporation. Each cloned sequence was confirmed to be identical with the reported sequence.
(§2) CHO-K1 cells were transfected with the human SGLT1 and human SGLT2 expression vectors using Lipofectamine 2000 (Invitrogen Corporation). SGLT expression cells were cultured in the presence of geneticin (SGLT1) or hygromycin B (SGLT2) of the concentration of 500 μg/mL to select resistant strains. Cells were obtained using sugar uptake specific activity as an index in the following system.
(§3) Cells stably expressing human SGLT1 and human SGLT2 were used in the sodium-dependent sugar uptake activity inhibition test. Cells were incubated in 1 mL of a pretreatment buffer solution (140 mM choline chloride, 2 mM KCl, 1 mM CaCl2, 1 mM MgCl2, 10 mM HEPES/5 mM Tris, pH 7.4) for 20 minutes. The pretreatment buffer solution was removed and 200 μL of an uptake buffer containing test compounds (methyl-α-D-glucopyranoside containing [^14C]methyl-α-D-glucopyranoside (0.1 mM for SGLT1 inhibition, 1 mM for SGLT2 inhibition), 140 mM NaCl, 2 mM KCl, 1 mM CaCl2, 1 mM MgCl2, 10 mM HEPES/5 mM Tris, pH 7.4) were added, and uptake reaction was performed at 37° C. for 30 minutes (SGLT1) or for one hour (SGLT2). After the reaction, cells were washed with 1 mL of a washing buffer (10 mM methyl-α-D-glucopyranoside, 140 mM choline chloride, 2 mM KCl, 1 mM CaCl2, 1 mM MgCl2, 10 mM HEPES/5 mM Tris, pH 7.4) twice and dissolved in 400 μL of 0.2 M NaOH solution. After Aquazole 2 (Perkin Elmer Corporation) was added and mixed well, radioactivity was measured with a liquid scintillation counter (Beckman Coulter Corporation). A buffer for uptake which contained no test compound was prepared as a control group. Another buffer solution for uptake containing choline chloride in place of NaCl was also prepared for basic uptake.

Data set [1] has as its system rat kidney brush border membrane vesicles (BBMV). As to the kind of experiment: Glucose uptake inhibition in rat kidney brush border membrane vesicles (Test Example 1). It counts as biochemical. As to conditions: D-[6-3H]glucose 0.1 mM, 37° C., five seconds, read-out: IC50 (concentration at which glucose uptake was inhibited by 50%). On the procedure:
After 50 μL of a suspension (protein concentration: 4 mg/mL) of rat kidney brush border membrane vesicles (brush border membrane […]: BBMV) prepared following the method described in a document (Anal. Biochem., Vol. 201, Clause 301, 1984) was preincubated at 37° C. for two minutes, 150 μL of a reaction mixture which was a mixture of a test compound dissolved in DMSO (DMSO final concentration: 1%), 100 mM mannitol, 100 mM NaSCN or KSCN, 10 mM HEPES/Tris pH 7.4, D-glucose (final concentration: 0.1 mM) and 1 μCi of D-[6-^3H] glucose (Amersham) was added to this. After performing a reaction at 37° C. for five seconds, 1 mL of an ice cooled reaction terminating solution (150 mM NaCl, 10 mM HEPES/Tris pH 7.4, 0.3 mM phlorizin) was added to the reaction mixture to terminate the reaction, and BBMV was immediately separated by rapid filtration using a membrane filter (HAWP02500 having a pore size of 0.45 μm, Millipore). The membrane filter was washed three times with 4.5 mL of the ice cooled reaction terminating solution. After the membrane was dried sufficiently, radioactivity was measured with a liquid scintillation counter (Beckman) to quantify the amount of glucose taken in BBMV on the membrane filter.

The target of another data set is T2, Human SGLT1 (Homo sapiens, UniProt P13866).
T2 construct: expressed in transfected cells; host or cells: CHO-K1
T2 sequence (P13866 1-664): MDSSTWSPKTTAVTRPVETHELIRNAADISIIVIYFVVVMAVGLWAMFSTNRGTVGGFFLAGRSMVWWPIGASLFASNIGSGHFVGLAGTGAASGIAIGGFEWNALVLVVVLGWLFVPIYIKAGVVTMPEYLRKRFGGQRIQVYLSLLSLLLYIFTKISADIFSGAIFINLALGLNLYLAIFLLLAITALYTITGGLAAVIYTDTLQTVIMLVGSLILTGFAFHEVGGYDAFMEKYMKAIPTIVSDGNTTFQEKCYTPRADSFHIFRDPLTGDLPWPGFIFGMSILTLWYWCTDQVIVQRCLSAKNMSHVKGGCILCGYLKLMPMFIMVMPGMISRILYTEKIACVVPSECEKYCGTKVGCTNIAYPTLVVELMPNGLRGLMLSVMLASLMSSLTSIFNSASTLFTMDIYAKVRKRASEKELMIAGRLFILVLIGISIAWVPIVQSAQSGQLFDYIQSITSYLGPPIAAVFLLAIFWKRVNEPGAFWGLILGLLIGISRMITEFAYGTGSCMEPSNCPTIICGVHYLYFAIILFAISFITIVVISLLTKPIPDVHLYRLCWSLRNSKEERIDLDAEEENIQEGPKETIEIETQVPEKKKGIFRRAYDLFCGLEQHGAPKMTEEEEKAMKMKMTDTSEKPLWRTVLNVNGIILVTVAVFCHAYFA
Briefly: Sodium-dependent sugar uptake inhibition test in CHO-K1 cells stably expressing human SGLT1 (Test Example 2). As to conditions: [14C]methyl-α-D-glucopyranoside 0.1 mM, 37° C., 30 minutes. The format is cell-based. As for the experimental part:
as §1, §2, §3

`OC[C@H]1S[C@@H](c2ccc(Cl)c(Cc3cc4ccccc4s3)c2)[C@H](O)[C@@H](O)[C@@H]1O` [Compound 128, (1S)-1,5-Anhydro-1-[3-[(1-benzothien-2-yl)methyl]-4-chlorophenyl]-1-thio-D-glucitol]: the melting point was 105 to 115 °C. In addition, on Human SGLT2, the IC50 was 140 nM and the SGLT1/SGLT2 is given as 4.4. Further, the IC50 in data set [1] stood at 790 nM. Further, at Human SGLT1, the IC50 is 600 nM.

For the compound `CCOc1ccc(Cc2cccc([C@@H]3S[C@H](CO)[C@@H](O)[C@H](O)[C@H]3O)c2)cc1` [Compound 75, (1S)-1,5-Anhydro-1-[3-(4-ethoxybenzyl)phenyl]-1-thio-D-glucitol], the values for the IC50 (against Human SGLT2; in data set [1]; against Human SGLT1) were 2830 nM, 1600 nM and 27400 nM, respectively. Also, the SGLT1/SGLT2 on Human SGLT2 stood at 9.7.

The compound `COc1ccc(Cc2cc3ccccc3s2)cc1[C@@H]1S[C@H](CO)[C@@H](O)[C@H](O)[C@H]1O` [Compound 130, (1S)-1,5-Anhydro-1-[3-[(1-benzothien-2-yl)methyl]-6-methoxyphenyl]-1-thio-D-glucitol] registered a melting point of 97.5 to 98 °C. Further, the IC50 against Human SGLT2 was 2120 nM. For the same compound, the IC50 at Human SGLT1 was over 10000 nM.

`COc1ccc([C@@H]2S[C@H](CO)[C@@H](O)[C@H](O)[C@H]2O)cc1Cc1cc2ccccc2s1` [Compound 127, (1S)-1,5-Anhydro-1-[3-[(1-benzothien-2-yl)methyl]-4-methoxyphenyl]-1-thio-D-glucitol] showed a melting point of 91 to 105 °C. On Human SGLT2, the IC50 stood at 1120 nM and the SGLT1/SGLT2 turned out to be 0.6. Further, in data set [1], the IC50 was determined as 350 nM. Further, the IC50 against Human SGLT1 turned out to be 700 nM.

For the compound `CCOc1ccc(Cc2ccc(O)c([C@@H]3S[C@H](CO)[C@@H](O)[C@H](O)[C@H]3O)c2)cc1` [Compound 79, (1S)-1,5-Anhydro-1-[3-(4-ethoxybenzyl)-6-hydroxyphenyl]-1-thio-D-glucitol], the results for the IC50 (at Human SGLT2; in data set [1]; against Human SGLT1) were 370 nM, 220 nM and 2700 nM, respectively. Further, the SGLT1/SGLT2 on Human SGLT2 is recorded as 7.2.

As to `CCOc1ccc(Cc2cc([C@@H]3S[C@H](CO)[C@@H](O)[C@H](O)[C@H]3O)ccc2Cl)cc1` [Compound 76, (1S)-1,5-Anhydro-1-[4-chloro-3-(4-ethoxybenzyl)phenyl]-1-thio-D-glucitol], at Human SGLT2, the IC50 is 80 nM and the SGLT1/SGLT2 was 14.6. For the same compound, in data set [1], the IC50 amounted to 320 nM.
